Key:
[1] = system: tobacco cutworm (Spodoptera litura); experiment: Biological Test 1: mortality of larvae on impregnated artificial bait; type: in vivo; conditions: 144 h, read-out: mortality of the larvae
Experimental: Emulsifiable concentrates were prepared for each of the present compounds according to the formulation example 1. Thirteen grams of artificial bait for tobacco cutworm (Spodoptera litura) were placed in a polyethylene cup (diameter: 11 cm) and impregnated with 2 ml of the 500 ppm emulsion prepared by diluting the emulsifiable concentrates with water. Ten 4-instar larvae of Spodoptera litura were put in the polyethylene cup. After 6 days, the mortality of the larvae was examined.

[2] = system: brown planthopper (Nilaparvata lugens); experiment: Biological Test 2: mortality of larvae on dipped rice plant stalk; type: in vivo; conditions: 144 h, read-out: mortality of the larvae
Experimental: A stalk of a rice plant was dipped for one minute in a 500 ppm aqueous emulsion obtained by diluting each emulsifiable concentrate of the present compounds prepared according to the formulation example 1. The rice plant stalk was air-dried and placed in a polyethylene cup (diameter: 5.5 cm) where filter paper (diameter: 5.5 cm) impregnated with 1 ml of water was put. Approximately 30 larvae of brown planthopper (Nilaparvata lugens) were put in the polyethylene cup. After 6 days, the mortality of the larvae was examined.

[3] = system: southern corn rootworm (Diabrotica undecimpunctata howardi); experiment: Biological Test 3: mortality of hatched larvae and eggs; type: in vivo; conditions: 192 h, read-out: mortality of the hatched larvae and eggs
Source text: Filter paper of 5.5 cm in diameter was laid in the bottom of a polyethylene cup (diameter: 5.5 cm). […] After 8 days, the mortality of the hatched larvae and eggs was examined.

[4] = system: houseflies (Musca domestica); experiment: Biological Test 4: mortality of female houseflies low sensitive to pyrethroids, treated filter paper; type: in vivo; conditions: 24 h
Experimental: (§1) Filter paper of 5.5 cm in diameter was laid in the bottom of a polyethylene cup (diameter: 5.5 cm). After 0.7 ml of a 500 ppm aqueous emulsion obtained by diluting each emulsifiable concentrate prepared according to the formulation example 1 was dropped on the filter paper and approximately 30 mg of sucrose as bait was uniformly scattered. Ten female houseflies (Musca domestica), which were low sensitive to pyrethroids, were left in the cup with a cover. After one day, the mortality was examined.

[5] = system: German cockroaches (Blattella germanica); experiment: Biological Test 5: mortality of male German cockroaches low sensitive to pyrethroids, treated filter paper; type: in vivo; conditions: 144 h
Experimental: as §1, with “Two male German cockroaches (Blattella germanica),” for “Ten female houseflies (Musca domestica),”, “six days,” for “one day,”

[6] = system: common mosquitoes (Culex pipiens pallens); experiment: Biological Test 8: knock-down of mosquitoes by mosquito-coil; type: in vivo; conditions: 1.0 g of 0.3% mosquito-coil in 0.34 m^3 chamber; after 15 minutes
Experimental: Mosquito-coil containing the present compound in an amount of 0.3% was prepared according to the formulation example 10 for the present compounds. Ten female common mosquitoes (Culex pipiens pallens) were left in a glass chamber (70 cm×70 cm×70 cm: 0.34 m^3) and 1.0 g of 0.3% mosquito-coil having both ends lit was placed in the glass chamber. After 15 minutes, the rate of knocked-down mosquitoes was examined.

[7] = system: webbing clothes moth (Tineola bisselliella); experiment: Biological Test 12: topical application to larvae of webbing clothes moth, mortality and fabric damage; type: in vivo
Experimental: Each of the present compounds diluted with acetone to a predetermined concentration was applied to ten middle instar larvae of webbing clothes moth (Tineola bisselliella) at the central part of the back so as to give the active ingredient in a dose of 3 μg/insect. A wool muslin fabric (2 cm×2 cm in size) was given to the webbing clothes moths as the food. After 7 days, the mortality and the degree of damage of the wool muslin fabric by the moths were examined (two replicate).

[8] = system: webbing clothes moth (Tineola bisselliella); experiment: Biological Test 13: volatile agent in cup, mortality and fabric damage; type: in vivo; conditions: volatile agent (100 μg on filter paper), 950 cm^3 cup, 25° C., 1 week
Experimental: A wool muslin fabric (2 cm×2 cm in size) was placed on the bottom of a polyethylene cup (bottom diameter: 10 cm, opening part diameter: 12.5 cm, height: 9.5 cm, volume: 950 cm^3). Ten middle instar larvae of webbing clothes moth (Tineola bisselliella) were put in the cup and each of the volatile agents prepared according to the formulation example 14 was hung from the cap in the interior of the cup. After standing at 25° C. for 1 week, the cup was opened, and the mortality and the degree of damage of the wool muslin fabric by the moths were examined (two replicate).

[9] = system: webbing clothes moth (Tineola bisselliella); experiment: Biological Test 14: treated filter paper in cardboard box, percent moribund, fabric damage and persistence; type: in vivo; conditions: 36 mg on filter paper
Experimental: A filter paper (3.2 cm×3.2 cm in size) treated with 36 mg of each of the present compounds and two wool muslin fabrics (25 cm×25 cm in size) were hung down at the upper part of a corrugated cardboard box (29 cm×29 cm×29 cm in size). After standing at 25° C. and a humidity of 60% for 1 week, two tea-strainer balls holding 7 to 10 middle instar larvae of webbing clothes moth (Tineola bisselliella) and one piece of wool muslin cloth (2 cm×2 cm in size) were hung down at the upper part of the box. The box was closed with a lid. After one week, the box was opened, and the percent moribund and the degree of damage of the wool muslin cloth by the moths were examined. The same tests was repeated 2 weeks, 3 weeks and 5 weeks after the treatment to examine the persistance of the present compound. The degree of damage was represented by "-" in no damage, "+" in slight damage, "++" in heavy damage and "+++" in severe damage.

[10] = system: houseflies (Musca domestica); experiment: Biological Test 16: topical application of compound (1) with piperonyl butoxide, mortality; type: in vivo; conditions: after 24 hours
Experimental: The combination rate of piperonyl butoxide to the present compound was 0, 2, 4, 8 and 16 times. The mixture was dissolved in acetone. The acetone solution (0.5 μL) was applied to 10 female houseflies (Musca domestica) at the back thoracic region. After 24 hours, the number of dead insects was observed (2 repetition) and mortality was calculated.

[11] = Toxicity Test: acute oral LD50; conditions: rat, in vivo, corn oil, fasted male 7-week old rats, after 7 days
Experimental: After subjecting the rats to a twenty-hour fasting, 0.1 ml of the diluted solution per 10 g weight was forcibly applied into the stomach of four male 7-week old rats. The rats were given food and water four hours after the application and thereafter regularly fed and watered, and kept in a cage. After 7 days, the mortality was examined for the rats and LD50 was calculated.

Cc1ccc(COC(=O)[C@@H]2[C@H](/C=C(\Cl)C(F)(F)F)C2(C)C)o1 (relative stereo) [Compound (1), 5-methyl-2-furfuryl (1RS,cis)-3-(Z-2-chloro-3,3,3-trifluoroprop-1-enyl)-2,2-dimethylcyclopropanecarboxylate]
-: degree of damage ([9]; After 1 week) | degree of damage ([9]; After 2 weeks) | degree of damage ([9]; After 3 weeks) | degree of damage ([9]; After 5 weeks)
300 mg/kg: LD50 at 168 h [11]
30%: Mortality (%) ([10]; compound (1) 0.5 μg/female, piperonyl butoxide 0)
100%: mortality at 500 µg/mL [1] | mortality at 50 ppm [3] | mortality at 500 ppm [4] | mortality at 500 ppm [5] | rate of knocked-down mosquitoes [6] | mortality at 0.003 mg ([7]; Tineola bisselliella, 168 h) | mortality ([8]; 10080 min) | Mortality (%) ([10]; compound (1) 0.5 + piperonyl butoxide 2.0 μg/female) | Mortality (%) ([10]; compound (1) 0.5 + piperonyl butoxide 4.0 μg/female) | Mortality (%) ([10]; compound (1) 0.5 + piperonyl butoxide 8.0 μg/female)
≥ 90%: mortality at 500 ppm [2]
no damage: degree of damage of the wool muslin fabric ([7]; 3 μg/insect, after 7 days) | degree of damage of the wool muslin fabric [8]

Source: patent US6048892A, “Ester compound pesticide containing thereof” (Sumitomo Chemical Company, Limited, priority 1999, dated 2000)
